Assay results: the kinase profiling compilation of Christmann-Franck et al. (2016)
Where “and” joins values, the source holds several entries; their conditions need not be identical. Identical values can stand only once. Each block holds one compound with its values, some of them ahead of it.

Columns and labels:
Experiment in all cases: radiometric filter-binding kinase assay, Kinase HotSpot
Conditions in all cases: compound 0.5 µM; ATP 10 µM
[1] = molecular target: MST4 (human) (UniProt Q9P289)
[2] = molecular target: MKNK2 (human) (UniProt Q9HBH9)
[3] = molecular target: TYRO3 (human) (UniProt Q06418)
[4] = molecular target: NEK7 (human) (UniProt Q8TDX7)
[5] = molecular target: PAK1 (human) (UniProt Q13153)
[6] = molecular target: MST1R (human) (UniProt Q04912)
[7] = molecular target: RPS6KA1 KD1 KD2 (human) (UniProt Q15418)
[8] = molecular target: TAOK3 (human) (UniProt Q9H2K8)
[9] = molecular target: ROS1 (human) (UniProt P08922)
[10] = molecular target: BRSK1 (human) (UniProt Q8TDC3)
[11] = molecular target: RPS6KA5 KD2 (human) (UniProt O75582)
[12] = molecular target: TXK (human) (UniProt P42681)
[13] = molecular target: STK17A (human) (UniProt Q9UEE5)
[14] = molecular target: CSNK1A1 (human) (UniProt P48729)
[15] = molecular target: MAP3K8 (human) (UniProt P41279)
[16] = molecular target: PRKCB1 (human) (UniProt P05771)
[17] = molecular target: LYN (human) (UniProt P07948)
[18] = molecular target: PLK1 (human) (UniProt P53350)
[19] = molecular target: SRPK3 (human) (UniProt Q9UPE1)
[20] = molecular target: ALK (human) (UniProt Q9UM73)
[21] = molecular target: AURKC (human) (UniProt Q9UQB9)
[22] = molecular target: FES (human) (UniProt P07332)
[23] = molecular target: FER (human) (UniProt P16591)
[24] = molecular target: LIMK1 (human) (UniProt P53667)
[25] = molecular target: RPS6KA4 KD2 (human) (UniProt O75676)
[26] = molecular target: PASK (human) (UniProt Q96RG2)
[27] = molecular target: ACVR1 (human) (UniProt Q04771)
[28] = molecular target: DYRK4 (human) (UniProt Q9NR20)
[29] = molecular target: MAP3K5 (human) (UniProt Q99683)
[30] = molecular target: EPHA1 (human) (UniProt P21709)
[31] = molecular target: SLK (human) (UniProt Q9H2G2)
[32] = molecular target: FGFR4 (human) (UniProt P22455)
[33] = molecular target: PIM3 (human) (UniProt Q86V86)
[34] = molecular target: ACVRL1 (human) (UniProt P37023)
[35] = molecular target: CSF1R (human) (UniProt P07333)
[36] = molecular target: WNK2 (human) (UniProt Q9Y3S1)
[37] = molecular target: CAMKK2 (human) (UniProt Q96RR4)
[38] = molecular target: MAP3K14 (human) (UniProt Q99558)
[39] = molecular target: GRK7 (human) (UniProt Q8WTQ7)
[40] = molecular target: NUAK2 (human) (UniProt Q9H093)
[41] = molecular target: DAPK1 (human) (UniProt P53355)
[42] = molecular target: IKBKB (human) (UniProt O14920)

Chain of CAMKK2 (human) (Q96RR4 whole entry, looked up): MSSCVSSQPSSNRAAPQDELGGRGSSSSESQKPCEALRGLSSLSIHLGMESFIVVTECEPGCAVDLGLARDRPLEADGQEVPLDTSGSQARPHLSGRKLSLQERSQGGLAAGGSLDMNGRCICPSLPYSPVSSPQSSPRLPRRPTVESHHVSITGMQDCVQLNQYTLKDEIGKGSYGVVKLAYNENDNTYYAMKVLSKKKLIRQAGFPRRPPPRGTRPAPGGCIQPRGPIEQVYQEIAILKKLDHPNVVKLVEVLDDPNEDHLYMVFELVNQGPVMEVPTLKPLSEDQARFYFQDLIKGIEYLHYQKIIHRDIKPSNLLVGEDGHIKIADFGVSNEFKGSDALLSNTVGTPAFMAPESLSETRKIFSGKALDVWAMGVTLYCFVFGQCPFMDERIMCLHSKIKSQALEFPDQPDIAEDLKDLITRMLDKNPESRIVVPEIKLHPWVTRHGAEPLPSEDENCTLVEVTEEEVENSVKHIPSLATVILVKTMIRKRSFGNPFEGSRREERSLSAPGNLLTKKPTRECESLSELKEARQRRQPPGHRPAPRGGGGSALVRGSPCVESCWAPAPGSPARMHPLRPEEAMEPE
Chain of PRKCB1 (human) (P05771 whole entry, looked up): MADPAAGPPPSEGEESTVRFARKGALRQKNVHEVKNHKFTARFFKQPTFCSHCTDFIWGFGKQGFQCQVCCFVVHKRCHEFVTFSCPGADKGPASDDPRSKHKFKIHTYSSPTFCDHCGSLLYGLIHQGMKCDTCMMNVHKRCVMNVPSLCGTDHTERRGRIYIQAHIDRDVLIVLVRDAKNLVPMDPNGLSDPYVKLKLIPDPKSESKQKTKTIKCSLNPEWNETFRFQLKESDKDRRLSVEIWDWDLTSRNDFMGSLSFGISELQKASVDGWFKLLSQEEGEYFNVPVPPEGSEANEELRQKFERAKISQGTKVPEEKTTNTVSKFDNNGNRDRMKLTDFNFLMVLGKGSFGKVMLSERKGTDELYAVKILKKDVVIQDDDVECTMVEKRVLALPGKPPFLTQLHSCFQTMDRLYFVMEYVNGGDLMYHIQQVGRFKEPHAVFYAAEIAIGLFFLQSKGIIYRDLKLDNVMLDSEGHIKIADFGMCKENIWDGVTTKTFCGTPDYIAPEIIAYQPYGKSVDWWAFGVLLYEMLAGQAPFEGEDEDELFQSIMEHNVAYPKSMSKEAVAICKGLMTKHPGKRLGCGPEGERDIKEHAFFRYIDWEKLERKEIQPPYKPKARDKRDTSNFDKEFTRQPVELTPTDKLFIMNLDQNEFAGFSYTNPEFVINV
Chain of CSF1R (human) (P07333 whole entry, looked up): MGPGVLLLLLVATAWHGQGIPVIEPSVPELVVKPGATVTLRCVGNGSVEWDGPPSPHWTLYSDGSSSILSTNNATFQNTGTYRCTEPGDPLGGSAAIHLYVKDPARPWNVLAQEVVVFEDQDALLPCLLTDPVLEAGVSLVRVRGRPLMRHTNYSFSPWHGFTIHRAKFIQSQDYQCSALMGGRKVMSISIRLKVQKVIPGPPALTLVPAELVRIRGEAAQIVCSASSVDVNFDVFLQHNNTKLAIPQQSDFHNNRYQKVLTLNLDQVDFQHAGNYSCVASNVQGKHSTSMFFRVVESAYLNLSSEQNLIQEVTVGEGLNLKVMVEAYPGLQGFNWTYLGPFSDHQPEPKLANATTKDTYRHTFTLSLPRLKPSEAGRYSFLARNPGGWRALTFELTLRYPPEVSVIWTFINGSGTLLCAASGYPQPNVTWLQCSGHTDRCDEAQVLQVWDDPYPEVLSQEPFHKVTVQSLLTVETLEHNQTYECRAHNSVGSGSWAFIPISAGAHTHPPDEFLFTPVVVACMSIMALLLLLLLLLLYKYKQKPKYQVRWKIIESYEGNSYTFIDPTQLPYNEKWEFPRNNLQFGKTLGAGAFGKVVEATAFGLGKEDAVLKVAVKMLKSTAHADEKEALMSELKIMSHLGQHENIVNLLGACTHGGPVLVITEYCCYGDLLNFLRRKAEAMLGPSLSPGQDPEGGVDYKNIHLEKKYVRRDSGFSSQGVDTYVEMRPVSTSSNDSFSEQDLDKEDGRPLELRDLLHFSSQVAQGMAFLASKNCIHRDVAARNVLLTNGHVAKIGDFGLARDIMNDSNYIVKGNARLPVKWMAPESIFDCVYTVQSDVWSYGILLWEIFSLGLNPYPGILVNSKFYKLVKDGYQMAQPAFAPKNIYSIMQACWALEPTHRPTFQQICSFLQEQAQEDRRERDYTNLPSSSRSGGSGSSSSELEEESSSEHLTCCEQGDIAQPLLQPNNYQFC
Chain of MAP3K8 (human) (P41279 whole entry, looked up): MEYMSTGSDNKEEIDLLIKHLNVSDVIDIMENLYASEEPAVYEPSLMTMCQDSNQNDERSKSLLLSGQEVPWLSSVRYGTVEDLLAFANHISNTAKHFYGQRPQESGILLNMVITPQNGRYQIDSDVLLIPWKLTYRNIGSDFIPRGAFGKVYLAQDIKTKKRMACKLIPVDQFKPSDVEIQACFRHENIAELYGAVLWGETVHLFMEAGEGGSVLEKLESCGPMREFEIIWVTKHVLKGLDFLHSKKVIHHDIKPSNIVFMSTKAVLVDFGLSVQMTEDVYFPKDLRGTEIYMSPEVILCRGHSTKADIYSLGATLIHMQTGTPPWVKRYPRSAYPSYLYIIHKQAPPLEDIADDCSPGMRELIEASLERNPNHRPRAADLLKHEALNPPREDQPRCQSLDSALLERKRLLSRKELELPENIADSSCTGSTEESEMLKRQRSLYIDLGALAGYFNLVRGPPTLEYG
Chain of PASK (human) (Q96RG2 whole entry, looked up): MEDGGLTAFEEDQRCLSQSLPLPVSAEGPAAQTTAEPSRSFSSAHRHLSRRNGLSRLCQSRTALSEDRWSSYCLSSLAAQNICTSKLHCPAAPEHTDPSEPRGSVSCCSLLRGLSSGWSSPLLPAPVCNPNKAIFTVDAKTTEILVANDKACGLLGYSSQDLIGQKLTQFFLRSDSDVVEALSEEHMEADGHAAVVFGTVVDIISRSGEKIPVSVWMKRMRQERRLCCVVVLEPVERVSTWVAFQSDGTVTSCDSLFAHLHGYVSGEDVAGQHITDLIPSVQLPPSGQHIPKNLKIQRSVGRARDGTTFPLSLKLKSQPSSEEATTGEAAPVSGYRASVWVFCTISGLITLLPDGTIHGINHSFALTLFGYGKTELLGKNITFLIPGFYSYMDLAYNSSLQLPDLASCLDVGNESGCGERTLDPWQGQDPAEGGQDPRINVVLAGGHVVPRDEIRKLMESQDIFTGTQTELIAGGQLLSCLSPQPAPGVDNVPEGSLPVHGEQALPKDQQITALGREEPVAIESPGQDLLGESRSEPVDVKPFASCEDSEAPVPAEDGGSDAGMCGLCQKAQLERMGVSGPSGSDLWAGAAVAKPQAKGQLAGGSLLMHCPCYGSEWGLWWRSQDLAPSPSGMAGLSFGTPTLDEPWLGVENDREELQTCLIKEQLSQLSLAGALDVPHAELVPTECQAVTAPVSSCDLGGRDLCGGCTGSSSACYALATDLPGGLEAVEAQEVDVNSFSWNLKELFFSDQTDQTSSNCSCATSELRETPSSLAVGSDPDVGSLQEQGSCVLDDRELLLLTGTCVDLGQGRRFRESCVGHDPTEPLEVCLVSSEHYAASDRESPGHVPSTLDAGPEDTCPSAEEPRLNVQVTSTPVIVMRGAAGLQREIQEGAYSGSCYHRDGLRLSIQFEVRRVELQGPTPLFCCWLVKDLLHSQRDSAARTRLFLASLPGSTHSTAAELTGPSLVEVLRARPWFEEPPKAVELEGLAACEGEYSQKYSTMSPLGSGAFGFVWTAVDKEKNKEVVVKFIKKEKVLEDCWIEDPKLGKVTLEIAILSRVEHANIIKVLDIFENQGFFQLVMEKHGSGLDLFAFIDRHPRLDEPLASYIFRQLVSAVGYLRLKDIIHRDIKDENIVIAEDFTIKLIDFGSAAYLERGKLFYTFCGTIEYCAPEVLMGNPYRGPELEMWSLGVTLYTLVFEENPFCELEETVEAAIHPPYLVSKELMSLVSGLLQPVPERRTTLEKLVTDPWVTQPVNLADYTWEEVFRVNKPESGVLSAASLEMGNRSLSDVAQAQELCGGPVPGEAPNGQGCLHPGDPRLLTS
Chain of NEK7 (human) (Q8TDX7 whole entry, looked up): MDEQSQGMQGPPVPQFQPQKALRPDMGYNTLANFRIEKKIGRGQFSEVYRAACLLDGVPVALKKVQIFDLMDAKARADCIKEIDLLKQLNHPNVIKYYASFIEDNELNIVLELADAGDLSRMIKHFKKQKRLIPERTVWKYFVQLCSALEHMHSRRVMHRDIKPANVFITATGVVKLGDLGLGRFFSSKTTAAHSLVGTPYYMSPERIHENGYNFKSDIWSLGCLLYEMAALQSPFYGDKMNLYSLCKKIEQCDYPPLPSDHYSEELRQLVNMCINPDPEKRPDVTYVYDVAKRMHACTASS
Chain of AURKC (human) (Q9UQB9 whole entry, looked up): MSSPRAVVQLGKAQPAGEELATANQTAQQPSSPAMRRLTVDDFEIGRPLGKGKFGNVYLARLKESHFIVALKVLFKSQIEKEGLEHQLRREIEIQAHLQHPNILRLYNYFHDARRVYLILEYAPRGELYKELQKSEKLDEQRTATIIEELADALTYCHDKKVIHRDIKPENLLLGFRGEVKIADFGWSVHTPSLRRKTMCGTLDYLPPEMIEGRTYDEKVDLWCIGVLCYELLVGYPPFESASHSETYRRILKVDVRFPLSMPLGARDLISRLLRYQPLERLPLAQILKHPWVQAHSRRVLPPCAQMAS

residual activity [1]: 104% | residual activity [2]: 51% | residual activity [3]: 98.3% | residual activity [4]: 88.2% | residual activity [5]: 96.5% | residual activity [6]: 93.5% | residual activity [7]: 79% | residual activity [8]: 87.5% | residual activity [9]: 92.7% | residual activity [10]: 92.7% | residual activity [11]: 98.9% | residual activity [12]: 49.3% | residual activity [13]: 94% | residual activity [14]: 80% | residual activity [15]: 96% | residual activity [16]: 90.8% | residual activity [17]: 96.2% and 96.4% | residual activity [18]: 91.4% | residual activity [19]: 89.5% | residual activity [20]: 85.2% | residual activity [21]: 96% | residual activity [22]: 92.8% | residual activity [23]: 91% | residual activity [24]: 90.2% | residual activity [25]: 107% | residual activity [26]: 64.1% | residual activity [27]: 100% | residual activity [28]: 65% | residual activity [29]: 102% | residual activity [30]: 95.5% | residual activity [31]: 87.7% | residual activity [32]: 101% | residual activity [33]: 3.74% | residual activity [34]: 102% | residual activity [35]: 99.2% | residual activity [36]: 106% | residual activity [37]: 80.4% | residual activity [38]: 109% | residual activity [39]: 113% | residual activity [40]: 72.5% | residual activity [41]: 99.3%
SMILES: N#C/C(=C1/Nc2ccccc2S1)c1ccnc(NCCc2cccnc2)n1

SMILES: Cn1cc(/C=C2\C(=O)Nc3ccc(S(N)(=O)=O)cc32)c2ccccc21
residual activity [1]: 101% | residual activity [2]: 71.1% | residual activity [3]: 90.5% | residual activity [4]: 101% | residual activity [5]: 90.8% | residual activity [6]: 100% | residual activity [7]: 12.7% | residual activity [8]: 60.2% | residual activity [9]: 82.2% | residual activity [10]: 47.8% | residual activity [42]: 101% | residual activity [11]: 80.9% | residual activity [12]: 51.3% | residual activity [13]: 57.5% | residual activity [14]: 105% | residual activity [15]: 96.8% | residual activity [16]: 114% | residual activity [18]: 92.1% | residual activity [19]: 88.5% | residual activity [20]: 72.1% | residual activity [21]: 37.1% | residual activity [22]: 57.4% | residual activity [23]: 20% | residual activity [24]: 74.1% | residual activity [25]: 71.2% | residual activity [26]: 84.8% | residual activity [27]: 111% | residual activity [28]: 73.7% | residual activity [29]: 53.2% | residual activity [30]: 101% | residual activity [31]: 28.6% | residual activity [32]: 74.1% | residual activity [33]: 91.6% | residual activity [34]: 99.1% | residual activity [35]: 82.5% | residual activity [36]: 97.7% | residual activity [37]: 34.4% | residual activity [38]: 123% | residual activity [39]: 20.9% | residual activity [40]: 102% | residual activity [41]: 98.9%

SMILES: N#CCCc1ccc2c(c1)-c1[nH]c3ccc([N+](=O)[O-])cc3c1CC(=O)N2
residual activity [1]: 65.1% | residual activity [2]: 87.7% | residual activity [3]: 94.8% | residual activity [4]: 87.4% | residual activity [5]: 52.1% | residual activity [6]: 107% | residual activity [7]: 59.9% | residual activity [8]: 66% | residual activity [9]: 71% | residual activity [10]: 46.8% | residual activity [42]: 96.3% | residual activity [11]: 94.2% | residual activity [12]: 67.6% | residual activity [13]: 46.8% | residual activity [14]: 95.1% | residual activity [15]: 87.5% | residual activity [16]: 97.4% | residual activity [18]: 101% | residual activity [19]: 94.6% | residual activity [20]: 78.8% | residual activity [21]: 83.6% | residual activity [22]: 37.9% | residual activity [23]: 72.7% | residual activity [24]: 99.9% | residual activity [25]: 85.8% | residual activity [26]: 96.9% | residual activity [27]: 58.8% | residual activity [28]: 100% | residual activity [29]: 101% | residual activity [30]: 91.7% | residual activity [31]: 87.2% | residual activity [32]: 89.1% | residual activity [33]: 70.9% | residual activity [34]: 53.6% | residual activity [35]: 43.4% | residual activity [36]: 112% | residual activity [37]: 86.8% | residual activity [38]: 161% | residual activity [39]: 97.7% | residual activity [40]: 67.6% | residual activity [41]: 96.5%
